Consider four compounds from article PMC6484129, “Structure–function analyses reveal that a glucuronoyl esterase from Teredinibacter turnerae interacts with carbohydrates and aromatic compounds” (The Journal of Biological Chemistry, 2019).

Molecules are shown by their SMILES. Read-outs that look alike come from different tables or passages of the source.

What all share (test): inhibition of BnzGlcA hydrolysis, coupled K-URONIC assay
Type in all cases: biochemical

Assay [1] addresses T1, TtCE15A (Teredinibacter turnerae, UniProt C5BN23, F174A).
T1 construct: gene TERTU_0517
The text has this: (§1) inhibition of BnzGlcA hydrolysis, coupled K-URONIC assay on TtCE15A

For assay [2], the target named is T2, TtCE15A (Teredinibacter turnerae, UniProt C5BN23, F174D).
T2 construct: gene TERTU_0517
T2 sequence (C5BN23 entry or part of it F174D): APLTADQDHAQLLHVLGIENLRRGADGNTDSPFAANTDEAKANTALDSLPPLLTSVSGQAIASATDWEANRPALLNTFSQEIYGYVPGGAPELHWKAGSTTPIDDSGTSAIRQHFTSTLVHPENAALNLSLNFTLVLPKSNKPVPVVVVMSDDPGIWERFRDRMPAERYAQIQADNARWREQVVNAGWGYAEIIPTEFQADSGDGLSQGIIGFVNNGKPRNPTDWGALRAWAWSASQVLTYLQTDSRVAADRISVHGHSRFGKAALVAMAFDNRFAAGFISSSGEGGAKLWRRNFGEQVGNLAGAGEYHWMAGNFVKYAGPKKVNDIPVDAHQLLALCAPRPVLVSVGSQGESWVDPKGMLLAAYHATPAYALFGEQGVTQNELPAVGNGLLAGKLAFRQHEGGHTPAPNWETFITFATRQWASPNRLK
From the text: as §1

The target in assay [3] is T3, TtCE15A (Teredinibacter turnerae, UniProt C5BN23).
T3 construct: gene TERTU_0517
T3 sequence (C5BN23 entry or part of it): as the sequence (C5BN23 entry or part of it F174D) above, with D152F counted along it
From the text: as §1

T1 sequence (C5BN23 entry or part of it F174A): as the sequence (C5BN23 entry or part of it F174D) above, with D152A counted along it

As to `COc1cc(/C=C/C(=O)O)ccc1O` [FA, ferulic acid], the IC50 was determined as 84 ± 5 µM in assay [1] (read-out: FA), 400 ± 40 µM in assay [2] (read-out: FA) and 550 ± 45 µM in assay [3] (read-out: FA).
For the compound `O=C(O)/C=C/c1ccc(O)cc1` [pCoA, p-coumaric acid], the IC50 in assay [1] (read-out: pCoA) stood at 4840 ± 470 µM; in assay [3] (read-out: pCoA), 830 ± 40 µM.
For `COc1cc(/C=C/C(=O)O)cc(OC)c1O` [SA, sinapic acid], the IC50 in assay [1] (read-out: SA) amounted to 190 ± 22 µM; in assay [2] (read-out: SA) it was 770 ± 64 µM; in assay [3] (read-out: SA), 560 ± 30 µM.
`CO[C@@H]1C(C(=O)O)O[C@H](O[C@H]2[C@H](O[C@@H]3CO[C@@H](O[C@H](CO)[C@H](O)[C@@H](O)CO)[C@H](O)[C@H]3O)OC[C@@H](O[C@@H]3OC[C@@H](O)[C@H](O)[C@H]3O)[C@@H]2O)[C@H](O)[C@H]1O` (stereo partly drawn) [XUXXR, 2^3-(4-O-methyl-D-glucuronyl)-α-D-xylotetraitol]: the IC50 in assay [3] (0.4 mM BnzGlcA, pH 7.5, <10% DMSO, read-out: XUXXR) stood at 5510 ± 280 µM.
